For the experiment, the target named is T1, SAMTOR (Homo sapiens, UniProt Q1RMZ1).
T1 sequence (Q1RMZ1 1-405): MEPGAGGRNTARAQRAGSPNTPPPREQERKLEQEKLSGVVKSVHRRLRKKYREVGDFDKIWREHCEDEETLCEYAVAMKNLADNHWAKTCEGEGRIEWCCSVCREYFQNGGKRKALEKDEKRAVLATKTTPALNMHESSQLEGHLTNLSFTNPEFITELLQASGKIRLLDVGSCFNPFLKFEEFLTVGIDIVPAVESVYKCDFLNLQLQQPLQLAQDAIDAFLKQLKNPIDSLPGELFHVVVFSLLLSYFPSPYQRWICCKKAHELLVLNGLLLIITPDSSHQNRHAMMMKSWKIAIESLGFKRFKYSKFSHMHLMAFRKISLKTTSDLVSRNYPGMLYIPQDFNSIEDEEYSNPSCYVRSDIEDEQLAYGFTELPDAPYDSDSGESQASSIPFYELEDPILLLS
In words: competition binding against [3H]SAM on purified FLAG-SAMTOR. Conditions: competitive with [3H]SAM.

On to `Nc1ncnc2c1ncn2[C@@H]1O[C@H](CSCC[C@H](N)C(=O)O)[C@@H](O)[C@H]1O` [SAH], for which the Ki result is given as “SAMTOR can also bind S-adenosylhomocysteine (SAH), the demethylated form of SAM”.

Source of the values: article PMC5747364 (Science (New York, N.Y.), 2017).
